Reference: ChEMBL document CHEMBL5620398, “Membrane-active substituted triazines as antibacterial agents against Staphylococcus aureus with potential for low drug resistance and broad activity” (Eur J Med Chem, 2023)
Values after ≈ are worked out from the molar mass of the structure shown. Active and inactive are the calls of the source. The calls are words filed in the database; no cut-off is given here.

Tests used:
[1] = tested on: Cell membrane; experiment: Induction of Inner membrane disruption in Staphylococcus aureus assessed as increase in fluorescence intensity at MIC to 4XMIC measured for 5 to 30 mins by EtBr dye based fluorescence analysis; format: cell membranes; details: time 5-30 min, TDE = time-dependent effect
[2] = tested on: Staphylococcus aureus; experiment: Anti-biofilm activity against Staphylococcus aureus assessed as inhibition of biofilm formation at MIC by crystal violet assay; format: functional
[3] = tested on: Staphylococcus aureus; experiment: Anti-biofilm activity against Staphylococcus aureus assessed as inhibition of biofilm formation at 1/16XMIC by crystal violet assay; format: functional
[4] = tested on: Cell membrane; experiment: Induction of cell membrane damage in Staphylococcus aureus assessed as broken cell membrane at 2XMIC by SEM analysis; format: cell membranes
[5] = tested on: Salmonella enterica; experiment: Antibacterial activity against Salmonella enterica assessed as inhibition of bacterial growth by two-fold serial broth dilution method; format: functional
[6] = molecular target: T1, Albumin (Homo sapiens, UniProt P02768); experiment: Binding affinity to human serum albumin assessed as change in enthalpy by Van't Hoff plot analysis; format: ADME; details: isolated protein
[7] = tested on: Cell membrane; experiment: Induction of Outer membrane disruption in Staphylococcus aureus assessed as […] in fluorescence intensity at MIC to 4X MIC by NPN dye based fluorescence analysis
[8] = tested on: Calf thymus DNA; experiment: Binding affinity to calf thymus DNA assessed as DNA intercalation by measuring increase in DNA melting temperature by thermal denaturation based analysis; format: nucleic-acid assay; details: Bos taurus
[9] = tested on: Enterococcus faecalis; experiment: Antibacterial activity against Enterococcus faecalis assessed as inhibition of bacterial growth by two-fold serial broth dilution method; format: functional
[10] = molecular target: T1, Albumin; experiment: Binding affinity to human serum albumin assessed as binding constant at 298K by fluorescence based analysis; format: ADME; details: isolated protein
[11] = molecular target: T1, Albumin; experiment: Binding affinity to human serum albumin assessed as quenching in emission band at 350 nm at 0 to 35 uM at 298 to 318K by fluorescence based analysis; format: ADME; details: isolated protein, dose 0-35 µM
[12] = tested on: Calf thymus DNA; experiment: Binding affinity to calf thymus DNA assessed as Stern-Volmer quenching constant by fluorescence based analysis; format: nucleic-acid assay; details: Bos taurus
[13] = tested on: Cell membrane; experiment: Induction of cell membrane damage in Staphylococcus aureus assessed as increase in leaked protein content at MIC to 8XMIC; format: cell membranes
[14] = molecular target: T1, Albumin; experiment: Binding affinity to human serum albumin assessed as quenching constant at 298K by fluorescence based analysis; format: ADME; details: isolated protein
[15] = tested on: Staphylococcus aureus; experiment: Anti-biofilm activity against Staphylococcus aureus assessed as inhibition of biofilm formation at 1/2XMIC by crystal violet assay; format: functional
[16] = molecular target: T1, Albumin; experiment: Binding affinity to human serum albumin assessed as Stem-Volmer quenching constant at 308K by fluorescence based analysis; format: ADME; details: isolated protein
[17] = molecular target: T1, Albumin; experiment: Binding affinity to human serum albumin assessed as change in free energy at 308K by Van't Hoff plot analysis; format: ADME; details: isolated protein
[18] = tested on: Staphylococcus aureus; experiment: Bactericidal activity against Staphylococcus aureus assessed as decrease in bacterial absorbance at MIC measured after 1 hr by time-kill analysis; format: functional, organism-based
[19] = molecular target: T1, Albumin; experiment: Binding affinity to human serum albumin assessed as Stem-Volmer quenching constant at 318K by fluorescence based analysis; format: ADME; details: isolated protein
[20] = tested on: Staphylococcus aureus; experiment: Ratio of MBC to MIC for Staphylococcus aureus; format: functional
[21] = molecular target: T1, Albumin; experiment: Binding affinity to human serum albumin assessed as binding constant at 318K by fluorescence based analysis; format: ADME; details: isolated protein
[22] = tested on: Cell membrane; experiment: Induction of Outer membrane disruption in Staphylococcus aureus assessed as […] in fluorescence intensity at MIC to 4X MIC measured for 5 to 30 mins by NPN dye based fluorescence analysis; details: time 5-30 min, TDE = time-dependent effect
[23] = tested on: Staphylococcus aureus; experiment: Anti-biofilm activity against Staphylococcus aureus assessed as inhibition of biofilm formation at 1/8XMIC by crystal violet assay; format: functional
[24] = tested on: Staphylococcus aureus; experiment: Antibacterial activity against Staphylococcus aureus assessed as inhibition of bacterial growth measured after 11 passages; format: functional, organism-based
[25] = tested on: HEK293; experiment: Cytotoxicity against human HEK293 cells at 100 uM by MTT assay; format: toxicity, cell-based; details: hek293, 100 µM
[26] = molecular target: T1, Albumin; experiment: Binding affinity to human serum albumin assessed as binding constant at 308K by fluorescence based analysis; format: ADME; details: isolated protein
[27] = tested on: Enterococcus faecalis; experiment: Bacteriostatic activity against Enterococcus faecalis assessed as inhibition of bacterial growth; format: functional
[28] = tested on: Bacillus subtilis; experiment: Antibacterial activity against Bacillus subtilis assessed as inhibition of bacterial growth by two-fold serial broth dilution method; format: functional
[29] = tested on: Escherichia coli; experiment: Antibacterial activity against Escherichia coli assessed as inhibition of bacterial growth by two-fold serial broth dilution method; format: functional
[30] = tested on: Calf thymus DNA; experiment: Binding affinity to calf thymus DNA assessed as DNA intercalation by measuring quenching in emission band at 601 nm at 0 to 90 uM by ethidium bromide competitive displacement assay; format: nucleic-acid assay; details: Bos taurus; dose 0-90 µM
[31] = molecular target: T1, Albumin; experiment: Binding affinity to human serum albumin assessed as change in free energy at 298K by Van't Hoff plot analysis; format: ADME; details: isolated protein
[32] = tested on: Cell membrane; experiment: Induction of Inner membrane disruption in Staphylococcus aureus assessed as increase in fluorescence intensity at MIC to 4XMIC by EtBr dye based fluorescence analysis; format: cell membranes
[33] = tested on: Staphylococcus aureus; experiment: Antibacterial activity against Staphylococcus aureus assessed as inhibition of bacterial growth by two-fold serial broth dilution method; format: functional
[34] = tested on: Acinetobacter calcoaceticus; experiment: Antibacterial activity against Acinetobacter calcoaceticus assessed as inhibition of bacterial growth by two-fold serial broth dilution method; format: functional
[35] = tested on: Serratia marcescens; experiment: Antibacterial activity against Serratia marcescens assessed as inhibition of bacterial growth by two-fold serial broth dilution method; format: functional
[36] = tested on: HEK293; experiment: Cytotoxicity against human HEK293 cells at 1 uM by MTT assay; format: toxicity, cell-based; details: hek293, 1 µM
[37] = tested on: Calf thymus DNA; experiment: Binding affinity to calf thymus DNA assessed as binding constant by fluorescence based analysis; format: nucleic-acid assay; details: Bos taurus
[38] = tested on: Calf thymus DNA; experiment: Binding affinity to calf thymus DNA assessed as quenching constant by fluorescence based analysis; format: nucleic-acid assay; details: Bos taurus
[39] = molecular target: T1, Albumin; experiment: Binding affinity to human serum albumin assessed as increase in compound corresponding new band formation at 344 nm at 0 to 18 uM by UV-Vis absorption spectroscopic analysis; format: ADME; details: isolated protein, dose 0-18 µM
[40] = molecular target: T1, Albumin; experiment: Binding affinity to human serum albumin assessed as change in free energy at 318K by Van't Hoff plot analysis; format: ADME; details: isolated protein
[41] = tested on: HEK293; experiment: Cytotoxicity against human HEK293 cells at 10 uM by MTT assay; format: toxicity, cell-based; details: hek293, 10 µM
[42] = molecular target: T1, Albumin; experiment: Binding affinity to human serum albumin assessed as hyperchromic shift at 280 nm at 0 to 18 uM by UV-Vis absorption spectroscopic analysis; format: ADME; details: isolated protein, dose 0-18 µM
[43] = tested on: HEK293; experiment: Cytotoxicity against human HEK293 cells at 0.01 uM by MTT assay; format: toxicity, cell-based; details: hek293, 0.01 µM
[44] = tested on: Cell membrane; experiment: Induction of cell membrane damage in Staphylococcus aureus assessed as loss of bacterial metabolic activity at MIC to 8XMIC by Alamar blue dye based fluorescence analysis; format: cell membranes
[45] = tested on: Staphylococcus aureus; experiment: Bactericidal activity against Staphylococcus aureus assessed as inhibition of bacterial growth at 1/4XMIC measured for 3 hrs by time-kill analysis; format: functional, organism-based
[46] = molecular target: T1, Albumin; experiment: Binding affinity to human serum albumin assessed as binding constant by Benesi-Hildebrand equation based analysis; format: ADME; details: isolated protein
[47] = molecular target: T1, Albumin; experiment: Binding affinity to human serum albumin assessed as Stem-Volmer quenching constant at 298K by fluorescence based analysis; format: ADME; details: isolated protein
[48] = tested on: Calf thymus DNA; experiment: Binding affinity to calf thymus DNA assessed as hypochromic shift in absorption band at 344 nm at 5 uM by UV-Vis absorption spectroscopy; format: nucleic-acid assay; details: Bos taurus
[49] = molecular target: T1, Albumin; experiment: Binding affinity to human serum albumin assessed as dynamic quenching by measuring decrease in decay time of HSA at 0 to 21 uM by time-resolved fluorescence analysis; format: ADME; details: isolated protein, dose 0-21 µM
[50] = tested on: Calf thymus DNA; experiment: Binding affinity to calf thymus DNA by Benesi-Hildebrand equation based analysis; format: nucleic-acid assay; details: Bos taurus
[51] = molecular target: T1, Albumin; experiment: Binding affinity to human serum albumin assessed as change in entropy by Van't Hoff plot analysis; format: ADME; details: isolated protein
[52] = tested on: Listeria; experiment: Antibacterial activity against Listeria sps. assessed as inhibition of bacterial growth by two-fold serial broth dilution method; format: functional
[53] = tested on: Cell membrane; experiment: Induction of cell membrane damage in Staphylococcus aureus assessed as corrugation with leakage of cellular contents at 2XMIC by SEM analysis; format: cell membranes
[54] = tested on: HEK293; experiment: Cytotoxicity against human HEK293 cells at 0.1 uM by MTT assay; format: toxicity, cell-based; details: hek293, 0.1 µM
[55] = tested on: Staphylococcus aureus; experiment: Bactericidal activity against Staphylococcus aureus assessed as decrease in bacterial absorbance at 1/2XMIC measured after 2 hrs by time-kill analysis; format: functional, organism-based
[56] = tested on: Enterococcus faecalis; experiment: Ratio of MBC to MIC for Enterococcus faecalis; format: functional
[57] = tested on: Staphylococcus aureus; experiment: Bactericidal activity against Staphylococcus aureus assessed as bacterial killing; format: functional

T1 sequence (P02768 whole entry): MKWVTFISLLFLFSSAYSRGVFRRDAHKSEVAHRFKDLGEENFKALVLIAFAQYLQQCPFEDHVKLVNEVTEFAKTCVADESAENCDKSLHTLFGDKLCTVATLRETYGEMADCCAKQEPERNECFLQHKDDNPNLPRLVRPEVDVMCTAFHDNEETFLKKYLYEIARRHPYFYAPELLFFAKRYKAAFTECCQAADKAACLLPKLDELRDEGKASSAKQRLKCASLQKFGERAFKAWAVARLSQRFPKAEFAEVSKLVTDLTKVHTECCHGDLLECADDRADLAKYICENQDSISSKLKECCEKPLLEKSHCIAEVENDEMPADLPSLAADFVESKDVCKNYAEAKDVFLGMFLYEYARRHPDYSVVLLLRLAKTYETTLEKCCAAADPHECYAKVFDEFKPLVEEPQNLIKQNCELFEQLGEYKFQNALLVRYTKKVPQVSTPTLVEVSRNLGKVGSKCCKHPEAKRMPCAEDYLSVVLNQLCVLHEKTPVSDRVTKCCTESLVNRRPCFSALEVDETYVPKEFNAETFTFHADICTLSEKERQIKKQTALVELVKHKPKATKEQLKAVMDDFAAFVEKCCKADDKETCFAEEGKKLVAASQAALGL

O=C1c2cccc3cccc(c23)C(=O)N1Nc1nc(NCc2ccccc2)nc(N2CCOCC2)n1
Activity [1]: Tde
inhibition (INH) [2]: 60%
inhibition (INH) [3]: 5%
Activity [4]: Active
MIC [5]: 200 mg/L (≈ 415 µM)
deltaH [6]: -8.61 kJ/mol
Activity [7]: Dose-Dependent Effect
ΔTm [8]: 12.8 °C
MIC [9]: 0.003 mg/L (≈ 0.00623 µM)
Kb [10]: 11.01 10^4/M
Activity [11]: Active
KSV [12]: 1.22 10^4/M
Activity [13]: Active
Kq [14]: 1.63 10^13/M
inhibition (INH) [15]: 30%
KSV [16]: 1.18 10^5/M
deltaG [17]: -6.79 kJ/mol
Activity [18]: Active
KSV [19]: 1.13 10^5/M
Ratio [20]: 2
Kb [21]: 4.41 10^4/M
Activity [22]: Tde
inhibition (INH) [23]: 10%
Activity [24]: Active
Activity [25]: 9.01%
Kb [26]: 6.61 10^4/M
MBC [27]: 0.19 mg/L (≈ 0.395 µM)
MIC [28]: 3.12 mg/L (≈ 6.49 µM)
MIC [29]: 100 mg/L (≈ 208 µM)
Activity [30]: Active
deltaG [31]: -6.85 kJ/mol
Activity [32]: Dose-Dependent Effect
MIC [33]: 1.56 mg/L (≈ 3.24 µM)
MIC [34]: 200 mg/L (≈ 415 µM)
MIC [35]: 100 mg/L (≈ 208 µM)
Activity [36]: 11.8%
Kb [37]: 8.26 10^4/M
Kq [38]: 1.22 10^12/M/s
Activity [39]: Active
deltaG [40]: -6.73 kJ/mol
Activity [41]: 10.5%
Activity [42]: Active
Activity [43]: 13.4%
Activity [44]: Active
Activity [45]: Active
Kb [46]: 1.32 10^5/M
KSV [47]: 1.63 10^5/M
Activity [48]: Active
Activity [49]: Active
Kb [50]: 5.99 10^4/M
deltaS [51]: -5.88 J/mol.K
MIC [52]: 6.25 mg/L (≈ 13 µM)
Activity [53]: Active
Activity [54]: 12.2%
Activity [55]: Active
Ratio [56]: >=32
MBC [57]: 3.25 mg/L (≈ 6.75 µM)
